According to patent publication US6353128B1, “Phenyl acetamides as sPLA2 inhibitors” (Eli Lilly and Company, priority 1996, dated 2002):

Legend:
[1] = Titration (66% DMF); format: physicochemical
From the text: Titration (66% DMF): pK=7.4, Apparent Mol. Wt.=463 (457 Calculated) Mass Spectral Analysis (FAB) m/z: 458 [(M+1)^+]

SMILES	pK [1]	melting point [°C]
NC(=O)C(O)c1ccc(Oc2cccc(-c3ccccc3)c2)cc1OCCCCC(=O)[O-].[Na+] (racemic) [Example 7, Sodium(RS)-2-(4-carboxybutoxy)-4-(3-phenylphenoxy)phenyl-2-hydroxyacetamide]	7.4	
NC(=O)Cc1ccc(Oc2ccc(F)cc2)cc1 [Example 1, 4-(4-fluorophenoxy)phenylacetamide]		170 to 171
NC(=O)Cc1ccc(Oc2ccccc2)cc1 [Example 2, 4-phenoxyphenylacetamide]		161 to 163
NC(=O)Cc1cccc(Oc2ccccc2)c1 [Example 3, 3-phenoxyphenylacetamide]		115 to 117
